The test system of one experiment is S. aureus. Briefly: Antimicrobial microbroth dilution assay (growth, MIC). Format: cell-based. The following applies: Staphylococcus aureus, 20 h, 90% growth inhibition at 20 h, ±SD, n=4. As for the experimental part:
All bacterial isolates used in this study are listed in Supplementary Table 1. The American Type Culture Collection strain (ATCC 29213) and S. aureus strains were cultured onto brain heart infusion (BHI) agar (BD) or into broth (BD) and grown at 37 °C with shaking. S. aureus was grown in cation adjusted Muller Hinton Broth II (CAMHB, Becton Dickson) for testing. All bacterial strains were stored in glycerol broth at −80 °C.
Antimicrobial activity of the antibiotic-chemoattractants was determined as per the Clinical and Laboratory Standards Institute guidelines for microbroth dilution assays. Compounds stocks were prepared as two-fold serial dilution at 10x stock concentration required (final concentration of DMSO 0.5%). Growth of the S. aureus (5 × 10^5 CFU/mL in CAMHB) was monitored in 96-well flat bottom polypropylene microtiter plates (Greiner) covered with BreatheEasy membranes (Diversified Biotech) and absorbance of each well was measured at 595 nm every 4 h for 24 h (Clariostar plate reader, software v5.20R5, BMG). The percentage growth was calculated relative to the no compound control and the average of three biological replicates plotted using GraphPad Prism 9 software. The minimum inhibitory concentration was determined by the lowest drug concentration that inhibited bacterial growth to 90% compared to the 0 μM control.
Background: Broth dilution looks for growth in wells or tubes with falling amounts of substance.

The subject of a further experiment is human neutrophils. Put plainly: Transwell chemotaxis assay. Format: cell-based. The following applies: any of the concentrations tested (1-1000 nM).
Experiment [1] can be described thus: Mouse pneumonia model, lung histology (alveoli space, nuclei). Also noted: Area of lung: unit not given here. The following applies: each line is an individual value, listed as Van. The experiment is classed as in vivo. As for the experimental part: For pathology assessment, excised lungs from one mouse for each of the treatment group was fixed in 10% buffered formalin before undergoing routine histological processing (Monash University Histology Platform). Lungs were embedded in paraffin, cut into 5 µm thick sections and stained with hematoxylin and eosin. Tissue pathology was assessed by a veterinary pathologist (Dr Mark Williamson, Gribbles Veterinary Pathology, Clayton, Australia).
The loss of alveoli structure was quantified in the H&E sections by determining the area of white space in six FOV (1.8 × 1.2 mm) in the outer lobes of the lung (threshold of 0–240). In addition, the number of nuclei in these FOV were also determined. This was performed by isolating nuclei in the image (threshold of 0–130) and then using the analyze particle function (particles 80–4000, circularity 0.05–1) in FIJI[36] to count the number of nuclei detected. Data were plotted using GraphPad Prism 8 software.

The subject of the next experiment is S. aureus (SH1000-GFP). Briefly: Infection-on-a-chip S. aureus growth (GFP area) with neutrophils. Format: cell-based, Staphylococcus aureus. As for the experimental part: Use of this microfluidic device for monitoring migration of neutrophils and control of the S. aureus growth in cell culture medium has been outlined in detail previously. Briefly, microfluidic devices were primed with S. aureus (SH1000-GFP, 1 × 10^6/mL) in culture media (Iscove’s Modified Dulbecco’s Medium + 10% Fetal Bovine Serum) by loading the outer chamber and applying vacuum to draw bacteria into the inner chambers. The outer chamber was then washed by pushing 200 µL of media through the device using a pipette, and loaded with neutrophils (5.5 × 10^6/mL, stained with Hoechst 33342 dye, 10 min at 32 μM). Additionally, neutrophil phagocytosis was monitored by using pHrodo Red S. aureus BioParticles® (Life Technologies) in replace of live S. aureus cells. […] The concentration of cells were determined by hemocytometer.
Kinetics of neutrophil migration, S. aureus growth and phagocytosis was determined using imaging with an automated Nikon Eclipse TiE inverted wide-field microscope with stage control and perfect focus system run through the Nikon NIS element v4. […] The percentage of neutrophils recruited into the chamber was determined relative to the total number of neutrophils in each FOV divided by the number of chambers visible. […] The pHrodo or S. aureus GFP fluorescence within the microchamber was calculated by thresholding the image and measuring the area in FIJI[36]. […]

Experiment [2] concerns the target T1, formyl peptide receptor 1 (FPR1) (human, UniProt P21462 1-350).
T1 sequence (looked up): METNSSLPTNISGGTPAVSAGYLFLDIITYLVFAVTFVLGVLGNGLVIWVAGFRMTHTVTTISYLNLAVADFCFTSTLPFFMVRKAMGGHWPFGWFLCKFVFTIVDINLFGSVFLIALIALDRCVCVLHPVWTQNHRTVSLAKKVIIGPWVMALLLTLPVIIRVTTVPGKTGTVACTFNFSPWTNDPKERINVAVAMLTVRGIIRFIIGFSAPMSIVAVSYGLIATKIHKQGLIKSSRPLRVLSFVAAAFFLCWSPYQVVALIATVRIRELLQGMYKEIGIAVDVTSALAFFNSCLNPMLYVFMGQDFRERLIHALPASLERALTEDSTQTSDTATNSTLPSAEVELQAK

Experiment [3] deals with FPR2 of human neutrophils. Briefly: FPR competition binding assay with RhB-PB10. The following applies: 8 µM peptide, 5 min, after RhB-PB10 15 µM 1 h, Bis-Tris pH 6. As for the experimental part: A competition binding assay was performed based modification of the previous method. To determine the interaction of the formylated peptides with FPR2 of human neutrophils the fluorescently labelled FPR2 antagonist RhB-PB10 was used. RhB-PB10 was synthesized by solid-phase peptide synthesis on Wang resin. After initial acylation with Fmoc-L-Arg(Pbf)-OH, peptide elongation was performed using a solution of 20% piperidine for Fmoc removal and DIC/ Oxyma for Fmoc-amino acid or Rhodamine B coupling. After completion of the sequence, the peptide was cleaved from the resin and protecting groups were removed via TFA cleavage. Following concentration, the peptide was precipitated using diethyl ether, collected by centrifugation on a spark-resistant centrifuge and purified using RP-HPLC.
RhB-PB10 (15 μM) was preincubated with human neutrophils (5 × 10^6 neutrophils/mL) in Bis-Tris buffer pH 6 for 1 h. […] Any RhB-PB10 that was competed off by the peptides was then removed by washing in Bis-Tris buffer. Rhodamine B fluorescence levels of each sample were determined using microplate reader (Clariostar plate reader, BMG) with ex 550 nm, em 585 nm.

The target of experiment [4] is T1, formyl peptide receptor 1 (FPR1). Put plainly: cell-based or functional assay.

≈ marks a conversion by molar mass, not a printed value. Where “and” joins values, the source holds several entries; their conditions need not be identical. Equal values may be shown once. Read-outs that look alike come from different tables or passages of the source. Non-standard residues stand in square brackets, D forms with d. No end group written: not given here. *: point of attachment. Pra = C#CC[C@H](N)C(=O)O; For = O=C*

As a reminder, the MIC is the least concentration at which growth counts as inhibited. For the molecule `CN[C@H](CC(C)C)C(=O)N[C@H]1C(=O)N[C@@H](CC(N)=O)C(=O)N[C@H]2C(=O)N[C@H]3C(=O)N[C@H](C(=O)N[C@H](C(=O)O)c4cc(O)cc(O)c4-c4cc3ccc4O)[C@H](O)c3ccc(c(Cl)c3)Oc3cc2cc(c3O[C@@H]2O[C@H](CO)[C@@H](O)[C@H](O)[C@H]2O[C@H]2C[C@](C)(N)[C@H](O)[C@H](C)O2)Oc2ccc(cc2Cl)[C@H]1O` [Vancomycin, vancomycin], the MIC is 0.8 ± 0.1 µM (≈ 1.16 µg/mL) with S. aureus (A8819 (daptomycin susceptible, ST105)); 1 ± 0.25 µM (≈ 1.45 µg/mL) against S. aureus (ATCC 29213 / MSSA, ATCC 29213 (MSSA)); 0.6 ± 0.01 µM (≈ 0.87 µg/mL) in the experiment on S. aureus (MRSA, A5937 (MRSA, ST5)); 0.3 ± 0.03 µM (≈ 0.435 µg/mL) against S. aureus (MRSA, A5948 (MRSA, ST8)); 1 ± 0.2 µM (≈ 1.45 µg/mL) with S. aureus (MRSA, A6300 (MRSA, ST5)); 0.6 ± 0.01 µM (≈ 0.87 µg/mL) in the experiment with S. aureus (MRSA, A8090 (MRSA, ST5)). The MIC against S. aureus (MRSA, A9719 (MRSA, ST5)) was found to be 1 ± 0.3 µM (≈ 1.45 µg/mL); against S. aureus (MRSA, A9754 (MRSA, ST8)), 1.1 ± 0.06 µM (≈ 1.59 µg/mL); with S. aureus (MSSA, A9635 (MSSA, ST1892)), 0.6 ± 0.01 µM (≈ 0.87 µg/mL). In addition, the “neutrophil recruitment (in words)” value in the experiment on human neutrophils is recorded as “no neutrophil recruitment”. Moreover, the Area of lung in experiment [1] was 61.3 and 69.7 and 55.1 and 61.6 and 71.0 and 68.4 and 57.8. Further, the Nuclei in experiment [1] is 6013 and 1856 and 2087 and 3027 and 4794 and 2455.
For the molecule Van-C(H-MLFG-Tz) [C12], the “neutrophil recruitment (in words)” value in the experiment on human neutrophils is listed as “no neutrophil recruitment”. For the same molecule, the “growth inhibition of S. aureus by neutrophils in the microfluidic assay” value in the experiment with S. aureus (SH1000-GFP) is on record as “no observable growth inhibition”.
As for “fMChaFG = van (fMChaFG conjugated to the C-terminus of vancomycin) (peptide)”, in experiment [2], the ERK1/2 phosphorylation at 5 min in CHO cells overexpressing human FPR1, potency of the conjugate against the free peptide (lower potency) stood at 10 fold and the calcium mobilization in CHO cells overexpressing human FPR1, potency of the conjugate against the free peptide (lower potency) is greater than 90 fold.
As for fMIVIL [FPR2 specific agonist (Auspep)], the “RhB-PB10 binding to neutrophils relative to control (=1)” value came to 0.81 in experiment [3] (replicate 1); 0.79 in experiment [3] (replicate 2); 0.62 in experiment [3] (replicate 3); 0.75 in experiment [3] (replicate 4); 0.7 in experiment [3] (replicate 5).

B1: fMLFG = van (fMLFG conjugated to the C-terminus of vancomycin, no PEG linker) (peptide)
peptide: For-MLFG[Pra]
modifications: also: C-terminal propargylglycine linked by click (triazole) to azide-modified vancomycin carboxyl group
With B1, in experiment [4], the “ERK1/2 phosphorylation at 5 min in CHO cells overexpressing human FPR1, potency of the conjugate against the free peptide (lower potency)” value turned out to be 10 fold and the “calcium mobilization in CHO cells overexpressing human FPR1, potency of the conjugate against the free peptide (lower potency)” value was greater than 90 fold.

The values are drawn from article PMC8546149, “Antibiotic-chemoattractants enhance neutrophil clearance of Staphylococcus aureus” (Nature Communications, 2021).
